Data published in PubChem BioAssay AID328 (DTP/NCI, 2004).
Several values for one entry are separate records, joined by “and”; a condition that tells them apart may be missing. Identical values can stand only once. Toxic doses and inconclusive results are not listed. Residues, ends and D or L forms follow the SMILES beside them.

System: BDF1 mice, P388 leukemia ip, median survival T/C
Assay: NCI In Vivo Anticancer Drug Screen. Data for tumor model P388 Leukemia (intraperitoneal) in B6D2F1 (BDF1) mice
Conditions: endpoint: median survival time, higher = longer survival
Summary of the method: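 In tumour-bearing mice, survival after compound treatment is set against the vehicle group and given as a quotient.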

[1] = dose: 100.0 mg/kg/injection, schedule: Q04DX003 (ip), vehicle: Klucel (hydroxypropylcellulose) (HPC)
[2] = dose: 200.0 mg/kg/injection, schedule: Q04DX003 (ip), vehicle: Klucel (hydroxypropylcellulose) (HPC)
[3] = dose: 400.0 mg/kg/injection, schedule: Q04DX003 (ip), vehicle: Klucel (hydroxypropylcellulose) (HPC)
[4] = dose: 50.0 mg/kg/injection, schedule: Q01DX009 (ip), vehicle: saline with Tween-80
[5] = dose: 100.0 mg/kg/injection, schedule: Q01DX009 (ip), vehicle: saline with Tween-80
[6] = dose: 100.0 mg/kg/injection, schedule: Q04DX003 (ip), vehicle: saline with Tween-80
[7] = dose: 200.0 mg/kg/injection, schedule: Q01DX009 (ip), vehicle: saline with Tween-80
[8] = dose: 200.0 mg/kg/injection, schedule: Q04DX003 (ip), vehicle: saline with Tween-80
[9] = dose: 400.0 mg/kg/injection, schedule: Q04DX003 (ip), vehicle: saline with Tween-80
[10] = dose: 100.0 mg/kg/injection, schedule: Q01DX001 (ip), vehicle: saline with Tween-80
[11] = dose: 200.0 mg/kg/injection, schedule: Q01DX001 (ip), vehicle: saline with Tween-80
[12] = dose: 400.0 mg/kg/injection, schedule: Q01DX001 (ip), vehicle: saline with Tween-80
[13] = dose: 50.0 mg/kg/injection, schedule: Q01DX009 (ip), vehicle: saline
[14] = dose: 100.0 mg/kg/injection, schedule: Q01DX009 (ip), vehicle: saline
[15] = dose: 200.0 mg/kg/injection, schedule: Q01DX009 (ip), vehicle: saline

Cc1ccccc1C1c2ccccc2C(=O)c2cccc(C)c21 (stereo not drawn)
T/C (dose: 100.0 mg/kg/injection, schedule: Q01DX001 (ip), vehicle: Klucel (hydroxypropylcellulose) (HPC)): 104 % of control | T/C (dose: 100.0 mg/kg/injection, schedule: Q01DX009 (ip), vehicle: Klucel (hydroxypropylcellulose) (HPC)): 105 % of control | T/C [1]: 100 % of control | T/C (dose: 200.0 mg/kg/injection, schedule: Q01DX001 (ip), vehicle: Klucel (hydroxypropylcellulose) (HPC)): 109 % of control | T/C (dose: 200.0 mg/kg/injection, schedule: Q01DX009 (ip), vehicle: Klucel (hydroxypropylcellulose) (HPC)): 100 % of control | T/C [2]: 95 % of control | T/C (dose: 400.0 mg/kg/injection, schedule: Q01DX001 (ip), vehicle: Klucel (hydroxypropylcellulose) (HPC)): 100 % of control | T/C (dose: 400.0 mg/kg/injection, schedule: Q01DX009 (ip), vehicle: Klucel (hydroxypropylcellulose) (HPC)): 100 % of control | T/C [3]: 108 % of control

CC1CN1C(=O)c1cc(C(=O)N2CC2C)cc(C(=O)N2CC2C)c1 (stereo not drawn)
T/C (dose: 8.25 mg/kg/injection, schedule: Q04DX003 (ip), vehicle: saline with Tween-80): 113 % of control | T/C (dose: 16.5 mg/kg/injection, schedule: Q04DX003 (ip), vehicle: saline with Tween-80): 117 % of control | T/C (dose: 37.5 mg/kg/injection, schedule: Q01DX009 (ip), vehicle: saline with Tween-80): 166 % of control | T/C [4]: 163 % of control | T/C (dose: 66.0 mg/kg/injection, schedule: Q04DX003 (ip), vehicle: saline): 86 % of control | T/C (dose: 150.0 mg/kg/injection, schedule: Q04DX003 (ip), vehicle: saline): 86 % of control

COC(=O)CC(C)Cc1ccc(OC)c(OC)c1 (stereo not drawn)
T/C [5]: 104 % of control | T/C [6]: 95 % of control | T/C [7]: 112 % of control | T/C [8]: 109 % of control | T/C [9]: 109 % of control

CC(=O)OC1CC2(C)C3(CO3)C1OC1C=C(C)C(=O)C(O)C12CO (stereo not drawn)
T/C (dose: 5.0 mg/kg/injection, schedule: Q04DX002 (ip), vehicle: saline + alcohol): 105 % of control | T/C (dose: 10.0 mg/kg/injection, schedule: Q04DX002 (ip), vehicle: saline + alcohol): 100 % of control | T/C (dose: 20.0 mg/kg/injection, schedule: Q04DX002 (ip), vehicle: saline + alcohol): 107 % of control | T/C (dose: 40.0 mg/kg/injection, schedule: Q04DX002 (ip), vehicle: saline + alcohol): 109 % of control

CC(=O)NC(Cc1ccccc1)C(=O)NC(CCCN=C(N)N)C(=O)O (stereo not drawn) (Ac-Phe-Arg-OH; configuration not given here)
T/C (dose: 50.0 mg/kg/injection, schedule: Q01DX005 (ip), vehicle: saline): 108 % of control | T/C (dose: 100.0 mg/kg/injection, schedule: Q01DX005 (ip), vehicle: saline): 115 % of control | T/C (dose: 200.0 mg/kg/injection, schedule: Q01DX005 (ip), vehicle: saline): 105 % of control

COc1cccc(CC2c3ccccc3Nc3ccccc32)c1
T/C [10]: 88 % of control | T/C [11]: 87 % of control | T/C [12]: 89 % of control

Cc1cc(C)c(NS(=O)(=O)c2ccccc2)c(C)n1
T/C [6]: 100 % of control | T/C [8]: 91 % of control | T/C [9]: 91 % of control

S=c1nc[nH]c2ccccc12
T/C [1]: 109 % of control | T/C [2]: 122 % of control | T/C [3]: 109 % of control

C[n+]1cccc2ccccc21
T/C (dose: 12.5 mg/kg/injection, schedule: Q01DX009 (ip), vehicle: saline): 95 % of control | T/C (dose: 12.5 mg/kg/injection, schedule: Q04DX003 (ip), vehicle: saline): 104 % of control | T/C (dose: 25.0 mg/kg/injection, schedule: Q01DX009 (ip), vehicle: saline): 100 % of control and 105 % of control | T/C (dose: 25.0 mg/kg/injection, schedule: Q04DX003 (ip), vehicle: saline): 104 % of control | T/C [13]: 100 % of control and 110 % of control | T/C (dose: 50.0 mg/kg/injection, schedule: Q04DX003 (ip), vehicle: saline): 109 % of control | T/C [14]: 109 % of control

O=C(O)c1cc(Br)c(Br)s1
T/C (dose: 50.0 mg/kg/injection, schedule: Q04DX003 (ip), vehicle: saline with Tween-80): 91 % of control | T/C [6]: 100 % of control | T/C [8]: 112 % of control

O=c1[nH]cc(CCCO)c(=O)[nH]1
T/C [13]: 91 % of control | T/C [14]: 102 % of control | T/C (dose: 100.0 mg/kg/injection, schedule: Q04DX003 (ip), vehicle: saline): 109 % of control | T/C [15]: 100 % of control | T/C (dose: 200.0 mg/kg/injection, schedule: Q04DX003 (ip), vehicle: saline): 100 % of control | T/C (dose: 400.0 mg/kg/injection, schedule: Q01DX009 (ip), vehicle: saline): 100 % of control | T/C (dose: 400.0 mg/kg/injection, schedule: Q04DX003 (ip), vehicle: saline): 109 % of control

CCCCCCCCCCCCCCSC(CC(=O)O)C(=O)NNC(N)=S (stereo not drawn)
T/C (dose: 87.5 mg/kg/injection, schedule: Q01DX009 (ip), vehicle: saline with Tween-80): 101 % of control | T/C (dose: 175.0 mg/kg/injection, schedule: Q01DX009 (ip), vehicle: saline with Tween-80): 101 % of control | T/C (dose: 350.0 mg/kg/injection, schedule: Q01DX009 (ip), vehicle: saline with Tween-80): 113 % of control

CC1C(=O)COCC1=O
T/C [10]: 102 % of control | T/C [11]: 101 % of control | T/C [12]: 98 % of control

Nc1ccc(N)c2c1C(=O)c1cccc([N+](=O)[O-])c1C2=O
T/C (dose: 25.0 mg/kg/injection, schedule: Q01DX010 (ip), vehicle: carboxymethylcellulose (CMC)): 95 % of control | T/C (dose: 50.0 mg/kg/injection, schedule: Q01DX010 (ip), vehicle: carboxymethylcellulose (CMC)): 105 % of control | T/C (dose: 100.0 mg/kg/injection, schedule: Q01DX010 (ip), vehicle: carboxymethylcellulose (CMC)): 115 % of control | T/C (dose: 200.0 mg/kg/injection, schedule: Q01DX010 (ip), vehicle: carboxymethylcellulose (CMC)): 105 % of control | T/C (dose: 400.0 mg/kg/injection, schedule: Q01DX010 (ip), vehicle: carboxymethylcellulose (CMC)): 110 % of control

CCN(CC)CCNc1ncnc2c1cnn2-c1ccc(Cl)cc1
T/C [6]: 109 % of control | T/C [8]: 109 % of control

CCCCCCNC1=CC(=O)CC(C)(C)C1
T/C [13]: 105 % of control | T/C [14]: 99 % of control | T/C [15]: 107 % of control

O=C=Nc1ccc(CCc2ccc(N=C=O)cc2)cc1
T/C [4]: 110 % of control | T/C [5]: 120 % of control

NC12CC3CC(CC(C3)C1)C2
T/C (dose: 25.0 mg/kg/injection, schedule: Q01DX010 (ip), vehicle: saline): 100 % of control | T/C (dose: 50.0 mg/kg/injection, schedule: Q01DX010 (ip), vehicle: saline): 100 % of control | T/C (dose: 100.0 mg/kg/injection, schedule: Q01DX010 (ip), vehicle: saline): 100 % of control

COC1/C=C/OC2(C)Oc3c(C)c(O)c4c(O)c(c(/C=N/NC5CCCCCCCCCCCCCC5)c(O)c4c3C2=O)NC(=O)/C(C)=C\C=C\C(C)C(O)C(C)C(O)C(C)C(OC(C)=O)C1C (stereo not drawn)
T/C [5]: 100 % of control | T/C [6]: 100 % of control | T/C [7]: 95 % of control | T/C [8]: 90 % of control | T/C (dose: 400.0 mg/kg/injection, schedule: Q01DX009 (ip), vehicle: saline with Tween-80): 95 % of control | T/C [9]: 90 % of control

CO[C@H]1C[C@H](O[C@H]2CC[C@]3(C=O)[C@H]4CC[C@]5(C)[C@@H](C6=CC(=O)OC6)CC[C@]5(O)[C@@H]4CC[C@]3(O)C2)O[C@H](C)[C@H]1O[C@@H]1O[C@H](CO)[C@@H](O)[C@H](O)[C@H]1O
T/C (dose: 0.25 mg/kg/injection, schedule: Q01DX009 (ip), vehicle: saline): 104 % of control | T/C (dose: 0.25 mg/kg/injection, schedule: Q04DX003 (ip), vehicle: saline): 91 % of control | T/C (dose: 0.5 mg/kg/injection, schedule: Q01DX009 (ip), vehicle: saline): 100 % of control | T/C (dose: 0.5 mg/kg/injection, schedule: Q04DX003 (ip), vehicle: saline): 104 % of control | T/C (dose: 1.0 mg/kg/injection, schedule: Q01DX009 (ip), vehicle: saline): 90 % of control | T/C (dose: 1.0 mg/kg/injection, schedule: Q01DX010 (ip), vehicle: saline): 95 % of control | T/C (dose: 1.0 mg/kg/injection, schedule: Q04DX003 (ip), vehicle: saline): 100 % of control | T/C (dose: 2.0 mg/kg/injection, schedule: Q04DX003 (ip), vehicle: saline): 100 % of control
